How the values were obtained:
HAC15 cells = experiment: Cell number (DNA) of HAC15 cells; format: cell-based, Human; details: HAC15, 1 or 3 days, with or without ACTH
Description: Human adrenocortical carcinoma HAC15 and mouse corticotroph AtT20 cells were used, purchased as a kind gift by Dr. W. Rainey, and obtained from Dr. J. Tooze (European Organization for Molecular Biology), respectively. Both cell lines were cultured in 75 cm^2 flasks at 37° C. in a humidified incubator (Greiner Bio-One, Alphen a/d Rijn, the Netherlands) at 5% CO2. Dulbecco's Modified Eagle Medium F12 containing 5% fetal calf serum was used for HAC15, whereas AtT20 cells were cultured in Dulbecco's minimal essential medium (DMEM) supplemented with 10% fetal calf serum. Both mediums were supplemented with L-glutamine (2 mmol/L) and penicillin (10^5 U/L). Short tandem repeat (str) profiling using a Powerplex Kit (Promega, Leiden, the Netherlands) of HAC15 and AtT20 gave results consistent with the ATCC database, confirming the identity of both cell lines. Medium and supplements were obtained from Invitrogen, Breda, the Netherlands. Once a week, cells were harvested with trypsin (0.05%)-EDTA (0.53 mM) and resuspended in culture medium. […]
As a measure of cell number, DNA concentrations were determined using the bisbenzimide fluorescent dye (Hoechst 33258, Sigma Aldrich), as previously described.

[1] = test system: primary human corticotroph pituitary adenoma cultures; experiment: ACTH secretion corrected for cell number in primary corticotroph pituitary adenoma cultures; format: cell-based; details: both primary pituitary adenoma cultures, 1 μM, 7 days
Description: To obtain primary cultures, adrenal specimens (adrenocortical adenomas, adrenal hyperplasias and adrenocortical carcinomas) were collected after adrenalectomy at the department of Surgery, Erasmus University Medical Center, Rotterdam, the Netherlands, between April 2016 and May 2018. The study was conducted under guidelines that have been approved by the Medical Ethics Committee of the Erasmus Medical Center and informed consent was obtained from all patients. Immediately after surgery, specimens were minced into small pieces of 2-3 mm^3, washed in culture medium and centrifuged for 5 minutes at 600 g. The tissue was stored overnight in culture medium at 4° C., where after the tissue was centrifuged again and the supernatant was removed. Fragments were dissociated using 10-25 ml collagenase type 1 (2 mg/ml: Sigma-Aldrich), followed by incubation at 37° C. for up to two hours. […] Cell viability and cell amount were counted by trypan blue exclusion. […]
At the end of the AtT20 and primary pituitary adenoma culture experiments, medium was collected and supplemented with 1% of the protease inhibitor Trasylol to prevent degradation of ACTH. ACTH was measured using a commercially available, nonisotopic automatic chemiluminescence system (DPC Immulite).

Compound	effects on cell number (HAC15 cells)	effects on ACTH secretion corrected for cell number [1]
CC(=O)N1CCN(c2ccc(OCC3COC(Cn4ccnc4)(c4ccc(Cl)cc4Cl)O3)cc2)CC1 (racemic) [racemic ketoconazole, Ketoconazole]	no effects	No effects
CC(=O)N1CCN(c2ccc(OC[C@@H]3CO[C@@](Cn4ccnc4)(c4ccc(Cl)cc4Cl)O3)cc2)CC1 (relative stereo) [levoketoconazole, 2S,4R cis-1-acetyl-4-[4-[[2-(2,4-dichlorophenyl)-2-(1H-imidazol-1-ylmethyl)-1,3-dioxolan-4-yl]methoxyl]phenyl]piperazine]	no effects	No effects

From US12201632B2, “Levoketoconazole for treatment of congenital adrenal hyperplasia and primary aldosteronism” (Strongbridge Dublin Limited, priority 2018, dated 2025)
